Results reported in US11696913B2, “Prolonged ectoparasite-controlling agent for animal” (MITSUI CHEMICALS AGRO, INC., priority 2017, dated 2023).
Where two headings read alike, the source gives them in different places.

Tests used:
[1] = tested on: Amblyomma americanum; experiment: In vitro contact test with hard ticks (Amblyomma americanum nymphs); conditions: dose 1 μg/cm^2, 48 h, read-out: acaricidal activity
Procedure, shortened: (§1)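 Adult R. sanguineus, I. ricinus, D. variabilis or A. americanum nymphs exposed in glass vials coated with compound from acetone (900 ppm gives 5 μg/cm^2). Held 48 h at room temperature (R. sanguineus) or 21° C., 85% rel. hum.; then heated at 45-50° C. ≤5 min, motionless or uncoordinated ticks scored dead/moribund.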

[2] = tested on: Plutella xylostella; experiment: Insecticidal testing against diamondback moth; format: in vivo; conditions: foliar, 144 h, concentration 100 ppm, cabbage leaf dip, third-stage larvae, after 6 days, read-out: pesticidal rate
Excerpt: Insecticidal Testing Against Diamondback Moth (Plutella xylostella)

[3] = tested on: Dermacentor variabilis; experiment: In vitro contact test with adult hard ticks (Dermacentor variabilis); conditions: read-out: acaricidal activity; for pest or weed control at 0.2 µg/cm2, 0.2 µg/cm2: dose 0.2 μg/cm^2, 48 h; for pest or weed control at 1 µg/cm2, 1 µg/cm2: dose 1 μg/cm^2, 48 h
Procedure, shortened: as §1

[4] = tested on: Ctenocephalides felis; experiment: Ctenocephalides felis in-vitro feeding test with fleas (CTECFE oral); conditions: 48 hours, read-out: insecticidal feeding activity; for pest or weed control at 0.032 ppm: dose 0.032 ppm in citrated cattle blood; for pest or weed control at 0.16 ppm: dose 0.16 ppm in citrated cattle blood; for pest or weed control at 0.8 ppm: dose 0.8 ppm in citrated cattle blood; for pest or weed control at 4 ppm: dose 4 ppm in citrated cattle blood
Procedure, shortened: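 About 20 unfed adult cat fleas fed through parafilm on citrated cattle blood containing test substance (DMSO solution diluted in blood), held at about 37° C. Kill rate scored after 48 hours, 100% meaning all fleas dead.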

[5] = tested on: Ctenocephalides felis; experiment: Systemic treatment in-vivo test with cat flea on rats; conditions: Ctenocephalides felis, ip, intraperitoneal injection
Procedure, shortened: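 Rats dosed intraperitoneally per body weight in glycerol formal (up to 25% NMP for poorly soluble compounds). 30 D. variabilis nymphs released on treatment day and weekly, 30 C. felis fleas 24 h later; live attached engorged ticks counted at 48 h (±4 h), live fleas at 24 h, efficacy versus placebo group.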

[6] = tested on: Rhipicephalus (Boophilus) microplus; experiment: In vitro injection test with Rhipicephalus (Boophilus) microplus (BOOPMI Inj); conditions: 168 h, laid fertile eggs after 7 days, read-out: acaricidal activity; for pest or weed control at 32 ng: dose 0.032 μg/animal injected; for pest or weed control at 0.00016 mg: dose 0.16 μg/animal injected; for pest or weed control at 0.0008 mg: dose 0.8 μg/animal injected
Procedure, shortened: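 Test substance in DMSO; 1 μl injected into abdomen of each of 5 engorged adult female ticks, then held at 28° C., 85% rel. hum. Activity scored after 7 days from laying of fertile eggs: 100% = no eggs or all infertile, 0% = all eggs fertile.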

[7] = tested on: Rhipicephalus sanguineus; experiment: In vitro contact test with adult hard ticks (Rhipicephalus sanguineus); conditions: read-out: acaricidal activity; for pest or weed control at 0.2 µg/cm2, 0.2 µg/cm2: dose 0.2 μg/cm^2, 48 h; for pest or weed control at 1 µg/cm2, 1 µg/cm2: dose 1 μg/cm^2, 48 h
Procedure, shortened: as §1

[8] = tested on: Dermacentor variabilis; experiment: Systemic treatment in-vivo test with American dog tick nymph on rats; conditions: Dermacentor variabilis, ip, intraperitoneal injection
Protocol: Systemic Treatment In-Vivo Test with American Dog Tick Nymph and Cat Flea on Rats
Type of study and overall study design: The method is a randomized non-blinded efficacy study in accordance with European animal welfare requirements. Rats (Rattus norvegicus) were randomized based on pre-treatment flea counts. The efficacy of treatment was determined by comparison of the flea and tick counts of different treatment groups versus the placebo-treated control group. The experimental unit was the individual study animal. Method and route of administration: The compound was applied in a suitable solvent and carrier (more specifically, added to glycerol formal; in case of poorly soluble compounds, a solvent mixture with up to 25% by volume of N-methyl pyrrolidone may be used.) considering the individual body weight as an intraperitoneal injection.
Experimental infestation: On the day of treatment and weekly thereafter, 30 ticks (D. variabilis nymphs) were released onto the back of each rat, and 30 fleas (C. felis) were released onto the back of each rat 24 h later.
Tick and Flea counting: Rats were thoroughly examined and ticks and fleas were manually removed 48 h (±4 h) after tick infestation and 24 h after flea infestation. Live fleas and live attached engorged ticks were counted. In non-evident cases, engorgement status was evaluated by squeezing the tick on a filter paper to find traces of blood as sign for engorgement.

[9] = SD 2, read-out: Geometric mean percent reduction in live flea (Ctenocephalides felis) counts compared to untreated control rats
[10] = SD 9, read-out: Geometric mean percent reduction in live flea (Ctenocephalides felis) counts compared to untreated control rats
[11] = SD 16, read-out: Geometric mean percent reduction in live flea (Ctenocephalides felis) counts compared to untreated control rats
[12] = SD 23, read-out: Geometric mean percent reduction in live flea (Ctenocephalides felis) counts compared to untreated control rats
[13] = SD 30, read-out: Geometric mean percent reduction in live flea (Ctenocephalides felis) counts compared to untreated control rats
[14] = SD 2, read-out: Geometric mean percent reduction in live tick (Dermacentor variabilis) counts compared to untreated control rats
[15] = SD 9, read-out: Geometric mean percent reduction in live tick (Dermacentor variabilis) counts compared to untreated control rats
[16] = SD 16, read-out: Geometric mean percent reduction in live tick (Dermacentor variabilis) counts compared to untreated control rats
[17] = SD 23, read-out: Geometric mean percent reduction in live tick (Dermacentor variabilis) counts compared to untreated control rats
[18] = SD 30, read-out: Geometric mean percent reduction in live tick (Dermacentor variabilis) counts compared to untreated control rats

Row | SMILES | pest or weed control at 1 µg/cm2, 1 µg/cm2 [1] | pest or weed control at 100 ppm [2] | pest or weed control at 0.2 µg/cm2, 0.2 µg/cm2 [3] | pest or weed control at 1 µg/cm2, 1 µg/cm2 [3] | pest or weed control at 0.032 ppm [4] | pest or weed control at 0.16 ppm [4] | pest or weed control at 0.8 ppm [4] | pest or weed control at 4 ppm [4] | inhibition in vivo at 10 mg/kg [5, 9] | inhibition in vivo at 10 mg/kg [5, 10] | inhibition in vivo at 10 mg/kg [5, 11] | inhibition in vivo at 10 mg/kg [5, 12] | inhibition in vivo at 10 mg/kg [5, 13] | pest or weed control at 32 ng [6] | pest or weed control at 0.00016 mg [6] | pest or weed control at 0.0008 mg [6] | pest or weed control at 0.2 µg/cm2, 0.2 µg/cm2 [7] | pest or weed control at 1 µg/cm2, 1 µg/cm2 [7] | inhibition in vivo at 10 mg/kg [8, 14] | inhibition in vivo at 10 mg/kg [8, 15] | also measured
1 | CN(C(=O)c1ccc(F)c(F)c1)c1cccc(C(=O)Nc2c(I)cc(C(F)(C(F)(F)F)C(F)(F)F)cc2C(F)(F)F)c1F [Compound 51] | 90% | ≥ 70% | 90% | 90% | 95% | 95% | 95% | 95% | 100% | 100% | 98% | 90% | 90% | 100% | 100% | 100% | 90% | 90% |  |  | pest or weed control at 0.0064 ppm ([4]; dose 0.0064 ppm in citrated cattle blood): 95%; inhibition in vivo at 2 mg/kg [5, 9]: 100%; inhibition in vivo at 2 mg/kg [5, 10]: 96%; inhibition in vivo at 2 mg/kg [5, 11]: 67%; inhibition in vivo at 2 mg/kg [5, 12]: 37%
2 | CN(C(=O)c1ccc(C(F)(F)F)nc1)c1cccc(C(=O)Nc2c(I)cc(C(F)(C(F)(F)F)C(F)(F)F)cc2C(F)(F)F)c1F [Compound 66, N-(2-fluoro-3-((2-iodo-4-(perfluoropropan-2-yl)-6-(trifluoromethyl)phenyl)carbamoyl)phenyl)-N-methyl-6-(trifluoromethyl)nicotinamide] |  | ≥ 70% |  | 90% |  | 95% | 95% | 95% | 100% | 100% | 100% | 100% | 79% |  | 100% | 100% | 90% | 90% | 100% | 100% | inhibition in vivo at 10 mg/kg [8, 16]: 100%; inhibition in vivo at 10 mg/kg [8, 17]: 100%; inhibition in vivo at 10 mg/kg [8, 18]: 95%
3 | CN(C(=O)c1ccc(C(F)(F)F)nc1)c1cccc(C(=O)Nc2c(I)cc(C(F)(C(F)(F)F)C(F)(F)C(F)(F)F)cc2C(F)(F)F)c1F (centres unmarked) [Compound 119] | 90% | ≥ 70% | 90% | 90% | 95% | 95% | 95% | 95% | 100% | 97% | 94% | 62% | 44% | 100% | 100% | 100% |  |  | 100% | 100% | inhibition in vivo at 2 mg/kg [8, 14]: 100%; inhibition in vivo at 2 mg/kg [8, 15]: 96%; inhibition in vivo at 2 mg/kg [8, 16]: 63%; inhibition in vivo at 2 mg/kg [8, 17]: 1%; inhibition in vivo at 2 mg/kg [8, 18]: 61%; inhibition in vivo at 10 mg/kg [8, 16]: 100%; inhibition in vivo at 10 mg/kg [8, 17]: 89%; inhibition in vivo at 10 mg/kg [8, 18]: 61%
